Experimental data published in US9315475B2 (MERCK SHARP & DOHME CORP., priority 2011, dated 2016).

Columns and labels:
HIV-1 (H9IIIB strain) = assay: Antiviral acute infection assay in cell culture (Spread); type: cell-based; details: Human immunodeficiency virus 1, T-lymphoid, HIV-1 H9IIIB infection of MT-4 human T-lymphoid cells in 10% FBS; mean of at least two independent experiments
Text: Antiviral Assays in Cell Culture (“Spread”)
Acute Infection Assay (“Spread”) data were generated using HIV-1 (H9IIIB strain) infection of MT-4 human T-lymphoid cells in 10% FBS, and according to the methods disclosed by J. P. Vacca et al, “L-735,524: An orally bioavailable human immunodeficiency virus type 1 protease inhibitor,” Proc. Natl. Acad. Sci. USA, Vol. 91, pp. 4096-4100 (April 1994).

wildtype HIV-1 protease = biological target: T1, wildtype HIV-1 protease (Human immunodeficiency virus type 1 group M subtype B, UniProt P04585); assay: Assay for inhibition of microbial expressed HIV protease (Pepcleav); type: biochemical; details: wild type HIV-1 protease expressed in E. coli, peptide substrate, pH 5.5; mean of at least two independent experiments; read-out: Pepcleav
T1 construct: the wildtype HIV-1 protease (which was expressed in Escherichia coli); made in house; host or cells: Escherichia coli
Summary of the method: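 E. coli-expressed wild-type HIV-1 protease (20 pM) preincubated 30 min at room temperature with inhibitor in pH 5.5 sodium acetate/NaCl/BSA buffer, then 400 μM Val-Ser-Gln-Asn-(βnaphthyl)Ala-Pro-Ile-Val added for 1 h at 30 °C. Quenched with formic acid; product quantified by LC-MS/MS peak area, indinavir internal standard.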

HIV = details: HIV-infected patients, in combination with nucleoside reverse transcriptase inhibitors; cited from earlier work

COc1ccc([C@@H](c2ccccc2)[C@H](N)C(=O)Nc2cncc(F)c2CC[C@@H]2CN[C@H](COC(=O)NCC(F)(F)F)CO2)cc1 [Example 256, (βR)-N-(5-fluoro-4-{2-[(2R,5S)-5-({[(2,2,2-trifluoroethyl)carbamoyl]oxy}methyl)morpholin-2-yl]ethyl}pyridin-3-yl)-O-methyl-β-phenyl-L-tyrosinamide]
EC50 (HIV-1 (H9IIIB strain)): 100 nM | IC50 (wildtype HIV-1 protease): 5.7 nM

O=C(NCC(F)(F)F)OC[C@@H]1CO[C@H](CCc2c(F)cncc2NC(=O)[C@@H](NC(=O)OCCF)C(c2ccc(F)cc2)c2ccc(F)cc2)CN1 [Example 279, 4-fluoro-Nα-[(2-fluoroethoxy)carbonyl]-β-(4-fluorophenyl)-N-(5-fluoro-4-{2-[(2R,5S)-5-({[(2,2,2-trifluoroethyl)carbamoyl]oxy}methyl)morpholin-2-yl]ethyl}pyridin-3-yl)-L-phenylalaninamide]
EC50 (HIV-1 (H9IIIB strain)): 57 nM | IC50 (wildtype HIV-1 protease): 1.9 nM

O=C(NCC(F)(F)F)OC[C@@H]1CO[C@H](CCc2c(F)cncc2NC(=O)[C@@H](NC(=O)OC2CCCC2)C(c2ccc(F)cc2)c2ccc(F)cc2)CN1 [Example 278, Nα-[(cyclopentyloxy)carbonyl]-4-fluoro-β-(4-fluorophenyl)-N-(5-fluoro-4-{2-[(2R,5S)-5-({[(2,2,2-trifluoroethyl)carbamoyl]oxy}methyl)morpholin-2-yl]ethyl}pyridin-3-yl)-L-phenylalaninamide]
EC50 (HIV-1 (H9IIIB strain)): 38 nM | IC50 (wildtype HIV-1 protease): 3.2 nM

N[C@H](C(=O)Nc1cncc(F)c1CC[C@@H]1CN[C@H](COC(=O)NC2CC(F)(F)C2)CO1)C(c1ccc(F)cc1)c1ccc(F)cc1 [Example 217, N-(4-{2-[(2R,5S)-5-({[(3,3-difluorocyclobutyl)carbamoyl]oxy}methyl)morpholin-2-yl]ethyl}-5-fluoropyridin-3-yl)-4-fluoro-β-(4-fluorophenyl)-L-phenylalaninamide]
EC50 (HIV-1 (H9IIIB strain)): 94 nM | IC50 (wildtype HIV-1 protease): 2.7 nM

N[C@H](C(=O)Nc1cncc(F)c1CC[C@@H]1CN[C@H](COC(=O)NCC(F)(F)F)CO1)[C@H](c1ccccc1)c1ccc(F)c(F)c1 [Example 259, (βR)-β-(3,4-difluorophenyl)-N-(5-fluoro-4-{2-[(2R,5S)-5-({[(2,2,2-trifluoroethyl)carbamoyl]oxy}methyl)morpholin-2-yl]ethyl}pyridin-3-yl)-L-phenylalaninamide]
EC50 (HIV-1 (H9IIIB strain)): 66 nM | IC50 (wildtype HIV-1 protease): 5 nM

COC(=O)N[C@H](C(=O)Nc1cncc(F)c1CC[C@@H]1CNC(COC(=O)NCC(F)(F)F)CO1)[C@@H](c1ccc(F)cc1)c1cc(F)cc(F)c1 (stereo in doubt) [Example 91, (2S,3S)-2-(Methoxycarbonylamino)-3-(4-fluorophenyl)-3-(3,5-difluorophenyl)-N-(5-fluoro-4-(2-((2R,5R)-5-(2,2,2-trifluoroethylaminocarbonyloxymethyl)morpholine-2-yl)ethyl)pyridin-3-yl)propanamide]
EC50 (HIV-1 (H9IIIB strain)): 16 nM | IC50 (wildtype HIV-1 protease): 3 nM

COC(=O)N[C@H](C(=O)Nc1cccc(F)c1CC[C@@H]1CN[C@H](COC(N)=O)CO1)C(c1ccc(F)cc1)c1ccc(F)cc1 [Example 284, N-[2-(2-{(2R,5S)-5-[(carbamoyloxy)methyl]morpholin-2-yl}ethyl)-3-fluorophenyl]-4-fluoro-β-(4-fluorophenyl)-Nα-(methoxy-carbonyl)-L-phenylalaninamide]
EC50 (HIV-1 (H9IIIB strain)): 19 nM | IC50 (wildtype HIV-1 protease): 12 nM

COC(=O)N[C@H](C(=O)Nc1cccc(F)c1CC[C@@H]1CN[C@H](COC(=O)NCC(F)(F)F)CO1)[C@H](c1ccc(F)cc1)c1ccc(OC)cc1 [Example 299, (βS)-β-(4-fluorophenyl)-N-(3-fluoro-2-{2-[(2R, 5S)-5-({[(2,2,2-trifluoroethyl)carbamoyl]oxy}methyl)morpholin-2-yl]ethyl}phenyl)-Nα-(methoxy-carbonyl)-O-methyl-L-tyrosinamide]
EC50 (HIV-1 (H9IIIB strain)): 32 nM | IC50 (wildtype HIV-1 protease): 15 nM

N[C@H](C(=O)Nc1c(Cl)cccc1OC[C@@H]1CN[C@H](COC(=O)NCC(F)(F)F)CO1)C(c1ccc(F)cc1)c1ccc(F)cc1 [Example 260, N-(2-chloro-6-{[(2S,5S)-5-({[(2,2,2-trifluoroethyl)carbamoyl]oxy}methyl)morpholin-2-yl]methoxy}phenyl)-4-fluoro-β-(4-fluorophenyl)-L-phenylalaninamide]
EC50 (HIV-1 (H9IIIB strain)): 190 nM | IC50 (wildtype HIV-1 protease): 4.8 nM

O=C(C[C@@H](c1ccc(F)cc1)c1cc(F)cc(F)c1)Nc1cncc(F)c1CC[C@@H]1CNC(COC(=O)NCC(F)(F)F)CO1 (stereo in doubt) [Example 89, (3S)-3-(4-Fluorophenyl)-3-(3,5-difluorophenyl)-N-(5-fluoro-4-(2-((2R,5R)-5-(2,2,2-trifluoroethylaminocarbonyloxymethyl)morpholine-2-yl)ethyl)pyridin-3-yl)propanamide]
EC50 (HIV-1 (H9IIIB strain)): 13 nM | IC50 (wildtype HIV-1 protease): 1.4 nM

N[C@H](C(=O)Nc1cncc(F)c1CC[C@@H]1CN[C@H](CO)CO1)[C@@H](c1ccccc1)c1ccnc2ccccc12 [Example 249, (βS)-N-(5-fluoro-4-{2-[(2R,5R)-5-(hydroxymethyl)morpholin-2-yl]ethyl}pyridin-3-yl)-β-quinolin-4-yl-L-phenylalaninamide]
EC50 (HIV-1 (H9IIIB strain)): 3000 nM | IC50 (wildtype HIV-1 protease): 9.4 nM

CC(C)OC(=O)N[C@H](C(=O)Nc1cncc(F)c1CC[C@@H]1CN[C@H](COC(=O)NCC(F)(F)F)CO1)C(c1ccc(F)cc1)c1ccc(F)cc1 [Example 277, 4-fluoro-β-(4-fluorophenyl)-N-(5-fluoro-4-{2-[(2R,5S)-5-({[(2,2,2-trifluoroethyl)carbamoyl]oxy}methyl)morpholin-2-yl]ethyl}pyridin-3-yl)-Nα-[(1-methylethoxy)carbonyl]-L-phenylalaninamide]
EC50 (HIV-1 (H9IIIB strain)): 23 nM | IC50 (wildtype HIV-1 protease): 3.2 nM

N[C@H](C(=O)Nc1cncc(F)c1CC[C@@H]1CNC(COC(=O)NCC(F)(F)F)CO1)[C@@H](c1ccc(F)cc1)c1cccc(Cl)c1 (stereo in doubt) [Example 93, (2S,3S)-2-Amino-3-(3-chlorophenyl)-3-(4-fluorophenyl)-N-(5-fluoro-4-(2-((2R,5R)-5-(2,2,2-trifluoroethylaminocarbonyloxymethyl)morpholine-2-yl)ethyl)pyridin-3-yl)propanamide]
EC50 (HIV-1 (H9IIIB strain)): 52 nM | IC50 (wildtype HIV-1 protease): 1.7 nM

CC(C)(C)NC(=O)[C@@H]1CN(Cc2cccnc2)CCN1C[C@@H](O)C[C@@H](Cc1ccccc1)C(=O)N[C@H]1c2ccccc2C[C@H]1O [Indinavir, indinavir]
effect on HIV viral loads and CD4 cell counts (HIV): highly effective in reducing HIV viral loads and increasing CD4 cell counts

NC(=O)OC[C@@H]1CO[C@H](CCc2c(F)cccc2NC(=O)C[C@@H](c2ccc(F)cc2)c2ccc(F)cc2F)CN1 [Example 156, {(3S,6R)-6-[2-(2-{[(3S)-3-(2,4-difluorophenyl)-3-(4-fluorophenyl)propanoyl]amino}-6-fluoro-phenyl)ethyl]morpholin-3-yl}methyl carbamate]
EC50 (HIV-1 (H9IIIB strain)): 26 nM | IC50 (wildtype HIV-1 protease): 10 nM
